Results as given in patent US20180008587A1, “THIOHYDANTOIN ANDROGEN RECEPTOR ANTAGONISTS FOR THE TREATMENT OF CANCER” (Jaressen Pharmaceutica NV, priority 2016, published 2018).
Positions count from the first letter of the chain named. Several values for one entry are separate records, joined by “and”; a condition that tells them apart may be missing. Identical values can stand only once. Like-named read-outs stand apart in the source and are kept apart here. Blank lines part the entries; values can stand above or below the molecule they belong to.

Tests used:
[1] = system: androgen dependent signaling; assay: Hershberger assay; format: in vivo, rat
Description: The effect of AR antagonists on androgen dependent signaling in vivo was assessed using the Hershberger assay. In this assay, peripubertal castrated male Sprague-Dawley rats were administered AR antagonists described herein in the presence of testosterone (0.4 mg/kg testosterone propionate) and the weights of androgen dependent organs measured. Dosing was continued for 10 days and measurements taken 24 h after the last dose. The extent of antagonism of AR and consequent inhibition of organ growth was evaluated by comparison to the castration control. Compounds of Formula (I) were dosed orally QD and an endpoint assessment made by change in weight of 5 androgen sensitive organs (ASO): Paired Cowper's Glands (CG), Seminal Vesicles with Fluids and Coagulating Glands (SVCG), Glans Penis (GP), Ventral Prostate (VP) and Levator Ani-Bulbocavernosus Complex (LABC)). According to assay guidelines, statistically significant suppression of ASO is required in 2 of 5 organs for a compound to be classified as an anti-androgen (analysis was performed by t-test/Mann-Whitney).
Compounds defined herein were administered at the indicated dose (mg/kg) and flutamide (FT), positive control, at 3 mg/kg. All compounds were co-administered with testosterone propionate (TP, 0.4 mg/kg) which was also administered alone, untreated control, (castrated only rats served as the control for complete androgen blockade). A statistically significant change in ASO achieved in at least 2 of 5 organs was indicative of an active compound.

[2] = molecular target: T1, wild-type Androgen Receptor (AR-wt) (Homo sapiens, UniProt P10275); assay: LNCaP-AR-wt ANT reporter assay (ARE firefly luciferase, antagonist mode); format: cell-based; conditions: for IC50: antagonist mode, 400 pM R-1881 challenge, −Log10(IC50 [Molar]), read-out: LNCaP-AR-wt ANT pIC50 (converted); for Emax: read-out: LNCaP-AR-wt ANT MAX % Inh
T1 construct: expressed in transfected cells; host or cells: LNCaP (LNCaP AR (cs))
T1 sequence (P10275 1-920): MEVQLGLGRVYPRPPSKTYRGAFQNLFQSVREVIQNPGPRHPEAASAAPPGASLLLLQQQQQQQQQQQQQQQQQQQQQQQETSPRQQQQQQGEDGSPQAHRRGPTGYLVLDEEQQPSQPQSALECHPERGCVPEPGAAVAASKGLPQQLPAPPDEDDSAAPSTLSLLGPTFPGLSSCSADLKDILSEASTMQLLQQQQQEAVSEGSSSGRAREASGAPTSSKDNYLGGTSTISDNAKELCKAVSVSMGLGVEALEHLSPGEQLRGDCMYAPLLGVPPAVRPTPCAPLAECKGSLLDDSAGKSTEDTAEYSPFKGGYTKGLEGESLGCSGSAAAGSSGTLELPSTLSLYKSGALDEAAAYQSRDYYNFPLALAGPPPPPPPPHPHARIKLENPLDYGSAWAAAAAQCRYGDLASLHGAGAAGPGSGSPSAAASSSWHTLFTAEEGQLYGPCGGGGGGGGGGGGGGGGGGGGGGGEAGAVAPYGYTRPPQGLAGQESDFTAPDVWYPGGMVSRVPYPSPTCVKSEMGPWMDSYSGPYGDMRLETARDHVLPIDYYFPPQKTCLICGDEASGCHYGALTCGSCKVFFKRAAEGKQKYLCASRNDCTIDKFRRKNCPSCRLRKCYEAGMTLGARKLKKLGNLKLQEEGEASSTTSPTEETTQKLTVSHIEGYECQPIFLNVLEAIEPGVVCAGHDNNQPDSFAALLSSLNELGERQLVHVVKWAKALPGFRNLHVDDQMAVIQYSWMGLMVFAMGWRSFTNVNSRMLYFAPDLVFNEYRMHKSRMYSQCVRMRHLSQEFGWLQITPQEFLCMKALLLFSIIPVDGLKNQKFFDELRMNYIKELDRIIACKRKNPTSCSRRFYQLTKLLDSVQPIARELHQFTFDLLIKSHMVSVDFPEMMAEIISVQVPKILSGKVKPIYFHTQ
How it was run: (§1)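 Puromycin-selected pooled LNCaP populations expressing AR-wt or AR-F876L are seeded in CSS medium and treated with compound for 20-24 h at 37 °C. For antagonist testing, agonist is added at 400 pM (WT) or 600 pM (F876L). Potency values derive from least-squares fitting of luminescence RLU.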

[3] = molecular target: T2, F876L mutant Androgen Receptor (AR-F876L) (Homo sapiens, UniProt P10275, F877L); assay: LNCaP-AR-F876L AG reporter assay (ARE firefly luciferase, agonist mode); format: cell-based; conditions: for Emax: read-out: LNCaP-AR-F876L AG MAX % Stim
T2 construct: expressed in transfected cells; host or cells: LNCaP (LNCaP F876L)
T2 sequence (P10275 1-920 F877L): T1 sequence (P10275 1-920) with F877L
How it was run: (§2)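 LNCaP cells stably expressing wild-type or F876L AR (puromycin-selected pooled populations) were cultured in charcoal-stripped serum medium. In antagonist mode, agonist challenge was 400 pM for wild-type and 600 pM for F876L.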

[4] = molecular target: T1, wild-type Androgen Receptor (AR-wt); assay: LNCaP-AR-wt AG reporter assay (ARE firefly luciferase, agonist mode); format: cell-based; conditions: for Emax: read-out: LNCaP-AR-wt AG MAX % Stim
How it was run: as §2

[5] = molecular target: T2, F876L mutant Androgen Receptor (AR-F876L); assay: LNCaP-AR-F876L ANT reporter assay (ARE firefly luciferase, antagonist mode); format: cell-based; conditions: for Emax: read-out: LNCaP-AR-F876L ANT MAX % Inh; for IC50: read-out: LNCaP-AR-F876L ANT pIC50 (converted)
How it was run: as §1

F876L-VP16 = molecular target: T3, F876L-VP16 (Homo sapiens, UniProt P10275, F877L); assay: AR-VP16 DNA binding assay, HepG2; format: cell-based; conditions: HepG2, antagonist mode, 1 nM R1881, 48 hours
T3 construct: VP16 (fusion partner); expressed in transfected cells; host or cells: HepG2
T3 sequence (P10275 1-920 F877L): T1 sequence (P10275 1-920) with F877L
Description: (§3) HepG2 cells were maintained in EMEM supplemented with 10% FBS. One day before transfection, the media was changed to EMEM with 10% CSS. […] Cells were then trypsinized, counted and resuspended at 500,000 cells/mL. For agonist mode, the compounds were serially diluted and 50 μL of the compound was added per well. 50 μL of the cells were added to each well and incubated for 48 hours. For antagonist mode, a final concentration of 90 pM (VP16 AR) or 1 nM (VP16 F876L) R1881 was added to the plate and incubated for 48 hours. The plates were then assayed using SteadyGlo and read on the Envision. Percent Stimulation and Inhibition were determined and analyzed using GraphPad Prism.

AR-VP16 = molecular target: T4, AR-VP16 (Homo sapiens, UniProt P10275); assay: AR-VP16 DNA binding assay, HepG2; format: cell-based; conditions: HepG2, antagonist mode, 90 pM R1881, 48 hours; read-out: IC50 VP16 WT
T4 sequence (P10275 560-920 limits assumed): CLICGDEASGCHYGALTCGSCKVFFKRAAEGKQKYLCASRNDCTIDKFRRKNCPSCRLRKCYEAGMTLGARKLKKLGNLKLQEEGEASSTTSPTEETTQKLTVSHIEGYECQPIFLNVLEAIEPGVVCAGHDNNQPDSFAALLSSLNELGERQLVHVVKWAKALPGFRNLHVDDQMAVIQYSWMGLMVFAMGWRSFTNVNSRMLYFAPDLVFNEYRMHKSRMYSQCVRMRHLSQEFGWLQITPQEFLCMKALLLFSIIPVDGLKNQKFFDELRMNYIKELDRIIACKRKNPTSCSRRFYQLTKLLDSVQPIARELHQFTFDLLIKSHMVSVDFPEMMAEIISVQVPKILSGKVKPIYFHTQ
Description: as §3

T877A AR mutant = molecular target: T5, T877A AR mutant (Homo sapiens, UniProt P10275, T878A); conditions: cited from earlier work
T5 sequence (P10275 1-920 T878A): T1 sequence (P10275 1-920) with T878A

[6] = maximum % inhibition of R1881 control response over tested concentration range
[7] = maximum % stimulation (agonist response) over tested concentration range
[8] = 3 mg/kg orally QD 10 days with testosterone propionate 0.4 mg/kg, castrated rats, mean ± SD (n=6)

SMILES: CN1CCN(CCCc2ccc(N3C(=S)N(c4cnc(C#N)c(C(F)(F)F)c4)C(=O)C34CCC4)cc2)CC1 [Cpd 43, 5-[8-[4-[3-(4-methylpiperazin-1-yl)propyl]phenyl]-5-oxo-7-thioxo-6,8-diazaspiro[3.4]octan-6-yl]-3-(trifluoromethyl)pyridine-2-carbonitrile]
reduction in ASO versus TP control ([1]; all 5 organs, p≦0.05): significant reduction in ASO
IC50 [2]: 501 nM
Emax [2]: 97.3%
EC50 [3]: > 15100 nM
Emax [3]: 0.4%
EC50 [4]: > 15100 nM
Emax [4]: 0.7%
Emax [5]: 98.9%
IC50 [5]: 245 nM

IC50 [2]: 933 nM
Emax [2, 6]: 98.7%
EC50 ([3]; agonist mode, −Log10(EC50 [Molar]), read-out: LNCaP-AR-F876L AG pEC50 (converted)): > 15100 nM
Emax [3, 7]: 0.7%
EC50 ([4]; agonist mode, −Log10(EC50 [Molar]), read-out: LNCaP-AR-wt AG pEC50 (converted)): > 15100 nM
Emax [4, 7]: 1.1%
IC50 (F876L-VP16): 746 nM
IC50 (AR-VP16): 2050 nM
Emax [5, 6]: 99.3%
IC50 [5]: 525 nM
SMILES: Cc1cc(N2C(=O)C3(CCC3)N(c3ccc(OC4CCN(CCO)CC4)cc3)C2=S)cnc1C#N [Cpd 60, 5-[8-[4-[[1-(2-hydroxyethyl)-4-piperidyl]oxy]phenyl]-5-oxo-7-thioxo-6,8-diazaspiro[3.4]octan-6-yl]-3-methyl-pyridine-2-carbonitrile]

SMILES: CC(C)C(=O)Nc1ccc([N+](=O)[O-])c(C(F)(F)F)c1 [Flutamide, flutamide, reference compound]
ASO Organ Growth (% of TP control) SVCG [1, 8]: 22.5 ± 22.9 % of TP control and 16.6 ± 16.3 % of TP control
ASO Organ Growth (% of TP control) VP [1, 8]: 31.1 ± 29.2 % of TP control and 24.4 ± 35.5 % of TP control

SMILES: CC(C)(O)C(=O)Nc1ccc([N+](=O)[O-])c(C(F)(F)F)c1 [hydroxyflutamide]
activity in T877A AR mutant (T877A AR mutant): act as AR agonists
